Test results reported in the supplement of paper PMC10307832.

How the values were obtained:
Assay in all cases: relative viability (nuclei count vs DMSO), 5 days (fraction); higher = more cells survive
Linsitinib + Vorinostat = compound: C[C@]1(O)C[C@@H](c2nc(-c3ccc4ccc(-c5ccccc5)nc4c3)c3c(N)nccn32)C1 [Linsitinib] + O=C(CCCCCCC(=O)Nc1ccccc1)NO [Vorinostat] (partner 1 µM)
Procedure, shortened: (§1)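 Relative viability divides the nuclei count in treated wells by that in vehicle wells. Lung cancer cell lines were seeded in 1536-well plates, dosed by pin tool the next day, and fixed and stained after 5 days in one step with final 0.05% Triton X-100, 1% formaldehyde and 1 ug/ml Hoechst. Dosing was a single drug or a fixed anchor-drug dose plus five library-drug doses (not always all listed) in √10 steps, and values are medians of duplicate plates imaged at 4×.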

Linsitinib + Navitoclax = compound: C[C@]1(O)C[C@@H](c2nc(-c3ccc4ccc(-c5ccccc5)nc4c3)c3c(N)nccn32)C1 [Linsitinib] + CC1(C)CCC(c2ccc(Cl)cc2)=C(CN2CCN(c3ccc(C(=O)NS(=O)(=O)c4ccc(N[C@H](CCN5CCOCC5)CSc5ccccc5)c(S(=O)(=O)C(F)(F)F)c4)cc3)CC2)C1 [Navitoclax] (partner 0.5 µM)
Procedure, shortened: as §1

Ispinesib + Pemetrexed = compound: Cc1ccc(C(=O)N(CCCN)[C@@H](c2nc3cc(Cl)ccc3c(=O)n2Cc2ccccc2)C(C)C)cc1 [Ispinesib] + Nc1nc2[nH]cc(CCc3ccc(C(=O)N[C@@H](CCC(=O)O)C(=O)O)cc3)c2c(=O)[nH]1 [Pemetrexed] (partner 0.2 µM)
Procedure, shortened: as §1

Ispinesib = compound: Cc1ccc(C(=O)N(CCCN)[C@@H](c2nc3cc(Cl)ccc3c(=O)n2Cc2ccccc2)C(C)C)cc1 [Ispinesib]
Procedure, shortened: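 Viability is treated-well nuclei as a fraction of vehicle-well nuclei, reported as the median across plates. Before counting, lung cancer cell lines were kept overnight at 37 °C in 1536-well plates, pinned with five √10-spaced library-drug doses on vehicle-anchored plates, and left 5 days without medium change, then fixed, permeabilised and Hoechst-stained in one step, imaged at 4× and counted by MetaXpress. A plate passed only if control CV was below 25% and at least one doubling occurred.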

Cell Line | relative viability (Linsitinib + Vorinostat; first compound 0.01 µM) | relative viability (Linsitinib + Vorinostat; first compound 0.03162 µM) | relative viability (Linsitinib + Vorinostat; first compound 0.1 µM) | relative viability (Linsitinib + Vorinostat; first compound 0.3162 µM) | relative viability (Linsitinib + Vorinostat; first compound 1 µM) | relative viability (Linsitinib + Navitoclax; first compound 0.01 µM) | relative viability (Linsitinib + Navitoclax; first compound 0.03162 µM) | relative viability (Linsitinib + Navitoclax; first compound 0.1 µM) | relative viability (Linsitinib + Navitoclax; first compound 0.3162 µM) | relative viability (Linsitinib + Navitoclax; first compound 1 µM) | relative viability (Ispinesib + Pemetrexed; first compound 0.001 µM) | relative viability (Ispinesib + Pemetrexed; first compound 0.003162 µM) | relative viability (Ispinesib + Pemetrexed; first compound 0.01 µM) | relative viability (Ispinesib + Pemetrexed; first compound 0.03162 µM) | relative viability (Ispinesib + Pemetrexed; first compound 0.1 µM) | relative viability (Ispinesib; 0.001 µM) | relative viability (Ispinesib; 0.003162 µM) | relative viability (Ispinesib; 0.01 µM) | relative viability (Ispinesib; 0.03162 µM) | relative viability (Ispinesib; 0.1 µM)
NCI-H322M | 0.912 | 0.927 | 0.953 | 1 | 0.623 | 1.3 | 1.4 | 1.25 | 1.23 | 1.27 | 0.665 | 0.616 | 0.585 | 0.525 | 0.425 | 1.13 | 0.945 | 0.914 | 0.472 | 0.58
HARA | 0.51 | 0.513 | 0.648 | 0.347 | 0.351 | 1.09 | 1.17 | 1.13 | 0.788 | 1.15 | 0.278 | 0.203 | 0.209 | 0.187 | 0.171 | 1.04 | 1.16 | 1.06 | 0.872 | 0.169
NCI-H2023 | 0.71 | 0.327 | 0.903 | 0.196 | 0.398 | 1.02 | 0.628 | 1.07 | 0.839 | 0.87 | 0.241 | 0.241 | 0.19 | 0.144 | 0.115 | 1.08 | 0.961 | 1.06 | 0.387 | 0.177
NCI-H1437 | 0.815 | 0.709 | 0.851 | 0.618 | 0.626 | 1.03 | 0.994 | 1.1 | 1.01 | 1.02 | 0.31 | 0.334 | 0.329 | 0.347 | 0.238 | 1.07 | 1.11 | 1.14 | 0.995 | 0.247
BEN | 0.513 | 0.573 | 0.534 | 0.434 | 0.474 | 0.0565 | 0.0788 | 0.0565 | 0.0421 | 0.0587 | 0.826 | 0.953 | 0.797 | 0.471 | 0.278 | 1.12 | 1.1 | 0.983 | 0.647 | 0.378
LXF-289 | 0.735 | 0.69 | 0.755 | 0.473 | 0.729 | 0.951 | 0.932 | 0.929 | 0.783 | 0.939 | 0.92 | 0.937 | 0.973 | 0.769 | 0.137 | 0.98 | 1.02 | 1.13 | 0.773 | 0.178
NCI-H1993 | 0.936 | 0.737 | 0.781 | 0.286 | 0.644 | 0.937 | 0.902 | 0.839 | 1.01 | 0.6 | 0.652 | 0.677 | 0.637 | 0.587 | 0.404 | 0.959 | 1.05 | 1.05 | 0.912 | 0.651
LOU-NH91 | 0.983 | 0.817 | 0.914 | 0.735 | 0.76 | 0.786 | 0.651 | 0.707 | 0.686 | 0.678 | 0.387 | 0.428 | 0.384 | 0.374 | 0.323 | 0.962 | 1.09 | 1.05 | 0.646 | 0.287
NCI-H1975 | 0.752 | 0.614 | 0.748 | 0.575 | 0.632 | 1.08 | 0.941 | 1.04 | 1.12 | 0.8 | 0.328 | 0.327 | 0.322 | 0.277 | 0.155 | 1 | 0.952 | 1 | 0.742 | 0.184
PC-3 [JPC-3] | 0.78 | 0.784 | 0.843 | 0.492 | 0.571 | 0.842 | 0.798 | 0.785 | 0.731 | 0.669 | 1.29 | 1.39 | 1.02 | 0.674 | 0.384 | 1.06 | 1.15 | 1.09 | 0.909 | 0.533
NCI-H2126 | 0.855 | 0.8 | 0.767 | 0.451 | 0.514 | 0.95 | 0.808 | 0.945 | 0.925 | 0.878 | 0.672 | 0.669 | 0.768 | 0.647 | 0.303 | 0.978 | 1.08 | 1.06 | 0.992 | 0.564
LU99A | 0.492 | 0.466 | 0.524 | – | 0.291 | 0.975 | 0.892 | 0.749 | 0.602 | 0.691 | 0.188 | 0.21 | 0.163 | 0.163 | 0.141 | 0.976 | 1.01 | 1.03 | 0.303 | 0.269
NCI-H23 | 0.633 | 0.327 | 0.765 | 0.174 | 0.303 | 0.811 | 0.854 | 0.761 | 0.581 | 0.652 | 0.68 | 0.785 | 0.726 | 0.522 | 0.207 | 0.859 | 1.06 | 1.04 | 0.298 | 0.226
PC-14 | 0.668 | 0.566 | 0.808 | 0.517 | 0.52 | 0.968 | 1.01 | 1.03 | 0.984 | 0.944 | 0.132 | 0.139 | 0.0661 | 0.0425 | 0.0577 | 1.06 | 1.09 | 0.898 | 0.404 | 0.121
HCC-44 | 1.02 | 1.01 | 1.03 | 0.734 | 1.01 | 1.01 | 0.839 | 0.85 | 0.718 | 0.794 | 0.682 | 0.663 | 0.657 | 0.496 | 0.391 | 0.974 | 1.07 | 1.04 | 0.883 | 0.186
A-427 | 0.859 | 0.905 | 0.892 | – | 0.808 | 0.97 | 0.964 | 0.999 | – | 0.967 | 1.04 | 1.13 | 1.1 | 0.48 | 0.243 | 1.05 | 1.11 | 0.955 | 0.261 | 0.246
NCI-H596 | 0.583 | 0.584 | 0.597 | 0.49 | 0.593 | 0.835 | 1.01 | 0.938 | 0.805 | 0.931 | 0.502 | 0.51 | 0.578 | 0.52 | 0.304 | 0.993 | 0.933 | 1.03 | 0.999 | 0.444
RERF-LC-KJ | 0.552 | 0.608 | 0.649 | 0.293 | 0.455 | 0.862 | 0.813 | 0.581 | 0.791 | 0.558 | 0.43 | 0.516 | 0.443 | 0.309 | 0.202 | 1.04 | 0.975 | 1.03 | 0.684 | 0.331
NCI-H647 | 0.57 | 0.583 | 0.458 | 0.368 | 0.646 | 1.24 | 1.12 | 1.18 | – | 1.05 | 0.165 | 0.161 | 0.124 | 0.118 | 0.0916 | 0.995 | 1.05 | 1.18 | 0.188 | 0.153
NCI-H1734 | 0.865 | 0.727 | 0.877 | 0.554 | 0.541 | 0.77 | 0.865 | 0.925 | 0.821 | 0.784 | 0.414 | 0.415 | 0.395 | 0.336 | 0.248 | 0.971 | 1.01 | 1.09 | 0.612 | 0.262
SK-LU-1 | 0.71 | 0.557 | 0.788 | 0.75 | 0.742 | 0.903 | 0.777 | 0.793 | – | 0.774 | 1.07 | 0.972 | 1.27 | 0.897 | 0.412 | 1.15 | 1.15 | 1.16 | 0.881 | 0.592
NCI-H1395 | 0.671 | – | 0.821 | 0.68 | 0.644 | 1.14 | 0.904 | 1.47 | 1 | 1.15 | 0.986 | 1.04 | 0.725 | 0.432 | 0.377 | 0.95 | 1.06 | 0.854 | 0.44 | 0.354
COR-L23 | 0.431 | 0.267 | 0.402 | 0.357 | 0.302 | 0.915 | 1.01 | 1.11 | 0.931 | 0.897 | 0.197 | 0.195 | 0.183 | 0.158 | 0.147 | 1.11 | 1.04 | 1.19 | 0.512 | 0.171
EMC-BAC-2 | 0.44 | 0.441 | 0.426 | 0.398 | 0.214 | 1.16 | 1.17 | 1.14 | 0.996 | 1.16 | 0.455 | 0.418 | 0.405 | 0.352 | 0.327 | 1.04 | 1.26 | 1.11 | 0.395 | 0.421
NCI-H1355 | 0.66 | 0.65 | 0.574 | 0.444 | 0.311 | 0.888 | 0.868 | 0.881 | 0.729 | 0.659 | 1.13 | 1.09 | 1.16 | 0.809 | 0.259 | 1.08 | 1.06 | 1.09 | 0.728 | 0.274
NCI-H1944 | 0.508 | 0.674 | 0.537 | 0.45 | 0.317 | 1.02 | 1.1 | 1.04 | 0.93 | 0.917 | 0.682 | 0.61 | 0.588 | 0.389 | 0.218 | 1.02 | 0.997 | 1.07 | 0.425 | 0.306
HOP-62 | 0.699 | 0.57 | 0.682 | – | 0.36 | 1.08 | 1.12 | 1.13 | 0.636 | 0.823 | 0.319 | 0.327 | 0.34 | 0.26 | 0.117 | 1.06 | 1.07 | 1.26 | 0.967 | 0.338
NCI-H2009 | 0.725 | 0.699 | 0.796 | 0.58 | 0.669 | 1.15 | 1.24 | 1.22 | 1.01 | 1.2 | 1.13 | 1.06 | 1.03 | 0.936 | 0.44 | 1.03 | 1.02 | 1.04 | 0.606 | 0.481
